Source: US11040052B2, “Methods and pharmaceutical compositions for modulating autophagy in a subject in need thereof” (INSERM (INSTITUT NATIONAL DE LA SANTE ET DE LA RECHERCHE …, priority 2013, dated 2021)
“Also recorded” adds a separate entry of the source.

Columns and labels:
[1] = test system: U2OS cells stably expressing GFP-LC3; assay: Autophagy in cultured cells: GFP-LC3 puncta formation and LC3 lipidation with or without bafilomycin A1; type: cell-based, human; conditions: for autophagic flux (GFP-LC3 puncta formation, LC3 lipidation): cells kept in rich medium, presence and absence of BafA1; for starvation-induced autophagy (GFP-LC3 puncta, LC3 lipidation, autophagic flux): nutrient-depleted (starved) cells in vitro; for abolition of the effects of AcCoA-replenishing agents on starvation-induced protein deacetylation and autophagy: starved cells plus DCA, DMKG or KIC
Procedure: U2OS, HeLa or H4 cells stably expressing GFP-LC3 were seeded in 96-well imaging plates (BD Falcon, Sparks, USA) 24 h before stimulation. Cells were treated with the indicated agents for 4 h. […] Images were analyzed for the presence of GFP-LC3 puncta in the cytoplasm by means of the BD Attovision software (BD Imaging Systems). Cell surfaces were segmented and divided into cytoplasmic and nuclear regions according to manufacturer standard proceedings. RB 2×2 and Marr-Hildreth algorithms were used to recognize cytoplasmic GFP-LC3 positive dots. Statistical analyses were implemented on the R software (http://www.r-project.org/). For quantitative analyses of protein acetylation, cell surfaces were segmented into cytoplasm and nuclei regions, and staining intensity of each individual cell was measured for statistical analysis.
Membranes were then sliced in different parts according to the molecular weight of the protein of interest to allow simultaneous detection of different antigens within the same experiment. Unspecific binding sites were saturated by incubating membranes for 1 h in 0.05% Tween 20 (v:v in TBS) supplemented with 5% non-fat powdered milk (w:v in TBS), followed by the overnight incubation with primary antibodies specific for acetylated-lysine, LC3, phospho-AMPK (Thr172), AMPK, phospho-ribosomal protein S6 kinase (Thr421/Ser424), ribosomal protein S6 kinase, or STQM/p62 (Santa Cruz Biotechnology). Development was performed with appropriate horseradish peroxidase (HRP)-labeled secondary antibodies (Southern Biotech, Birmingham, USA) plus the SuperSignal West Pico chemoluminescent substrate (Thermo Scientific-Pierce). An anti-glyceraldehyde-3-phosphate dehydrogenase antibody (Chemicon International, Temecula, USA) was used to control equal loading of lanes.
For immunoblotting, protein extracts obtained by cellular lysis via RIPA buffer were run on 4-12% Bis-Tris acrylamide (Invitrogen) and electrotransferred to […] PVDF membranes (Biorad, USA). Unspecific binding sites were saturated by incubating membranes for 1 h in 0.05% Tween 20 (v:v in TBS) supplemented with 5% non-fat powdered milk (w:v in TBS), followed by an overnight incubation with primary antibodies specific for, LC3, phospho-AMPK (Thr172), AMPK, phosphor-ACC (Ser79), ACC, phospho-ribosomal protein S6 kinase (Thr421/Ser424), ribosomal protein S6 kinase, or SQSTM/p62 (Abnova). Membranes were opportunely cut in order to allow simultaneous detection of different molecular weight proteins. Development was performed with horseradish peroxidase (HRP)-labeled secondary antibodies (Southern Biotech, Birmingham, USA) plus the SuperSignal West Pico chemo luminescent substrate (Thermo Scientific-Pierce). An anti-glyceraldehyde-3-phosphate dehydrogenase antibody (Abcam) and anti-Actin antibody (Abcam) were used to ensure equal loading of lanes. Quantification was performed by densitometry by means of Image J software.
U2OS and H4 cells stably expressing GFP-LC3 were seeded in 96-well or 384-well imaging plates (BD Falcon, Sparks, USA). 24 h before stimulation, ells were treated with the indicated agents for 6 hours in absence of lysososomal ATPase inhibitors and for 3 hours in presence of Bafilomycin A1. […] Images were analyzed for the detection of GFP-LC3 puncta in the cytoplasm by means of the BD Attovision software (BD Imaging Systems. Cellular regions of interest, cytoplasm and nucleus, were defined and segmented according to standard proceedings. RB 2×2 and Marr-Hildreth algorithms were employed to allow the detection of GFP LC3 puncta. Statistical analyses were conducted using the R and Prism softwares (http://www.r-project.org/). For quantitative analyses of protein acetylation, cell surfaces were segmented intocytoplasmic and nucleic regions, and staining intensity of each individual cell was measured for statistical analysis.

[2] = test system: cytoplasmic protein acetylation; assay: Immunofluorescence of cytoplasmic acetyl-lysine-containing proteins; type: cell-based, human; conditions: for cytoplasmic protein acetylation: cells kept in rich medium; for cytoplasmic protein acetylation in starved cells: nutrient-depleted (starved) cells in vitro
Procedure: Cells were fixed with 4% PFA for 15 min at room temperature, and permeabilized with 0.1% Triton X-100 for 10 min, except for staining of cytoplasmic acetyl-lysine-containing proteins, in which any permeabilization step further than PFA fixation was avoided. Non-specific binding sites were blocked with 5% bovine serum in PBS, followed by staining with primary antibodies overnight at 4° C. Development was carried out with appropriate AlexaFluor™ conjugates (Molecular Probes-Invitrogen). In the case of cytoplasmic acetyl-lysine staining, an additional step of blocking using anti-acetylated-tubulin antibody (1:200) was applied. Ten μM Hoechst 33342 (Molecular Probes-Invitrogen) was employed for nuclear counterstaining. Fluorescence and confocal fluorescence microscopy assessments were performed on an IRE2 microscope (Lcica Microsystems) equipped with a DC300F camera and with an LSM 510 microscope (Carl Zeiss, Jena, Germany), respectively.
U2OS, HeLa or H4 cells stably expressing GFP-LC3 were seeded in 96-well imaging plates (BD Falcon, Sparks, USA) 24 h before stimulation. Cells were treated with the indicated agents for 4 h. Subsequently, cells were fixed with 4% PFA and counterstained with 10 μM Hoechst 33342. Images were acquired using a BD pathway 855 automated microscope (BD Imaging Systems, San Jose, USA) equipped with a 40× objective (Olympus, Center Valley, USA) coupled to a robotized Twister II plate handler (Caliper Life Sciences, Hopkinton, USA). Images were analyzed for the presence of GFP-LC3 puncta in the cytoplasm by means of the BD Attovision software (BD Imaging Systems). Cell surfaces were segmented and divided into cytoplasmic and nuclear regions according to manufacturer standard proceedings. RB 2×2 and Marr-Hildreth algorithms were used to recognize cytoplasmic GFP-LC3 positive dots. Statistical analyses were implemented on the R software (http://www.r-project.org/). For quantitative analyses of protein acetylation, cell surfaces were segmented into cytoplasm and nuclei regions, and staining intensity of each individual cell was measured for statistical analysis.
Cells were fixed with 4% PFA for 15 min at room temperature, and permeabilized with 0.1% Triton X-100 for 10 min. For cytoplasmic Acetyl Lysine staining, we proceeded as described in 35. Non-specific binding sites were blocked with 5% bovine serum albumin in PBS, followed by incubation with primary antibodies overnight at 4° C. After 1 hour incubation, appropriate Alexa-conjugated Fluorophores (Invitrogen) were used for antigen detection. Ten μM Hoechst 33342 (Molecular Probes-Invitrogen, Eugene, USA) was employed for nuclear counterstaining Fluorescence wide-field and confocal microscopyassessments were performed on an DM IRE2 microscope (Leica Microsystems, Wetzlar, Germany) equipped with a DC300F camera and with an LSM 510 microscope (Carl Zeiss, Jena, Germany), respectively.
U2OS and H4 cells stably expressing GFP-LC3 were seeded in 96-well or 384-well imaging plates (BD Falcon, Sparks, USA). 24 h before stimulation, ells were treated with the indicated agents for 6 hours in absence of lysososomal ATPase inhibitors and for 3 hours in presence of Bafilomycin A1. Subsequently, cells were fixed with 4% PFA and counterstained with 10 μM Hoechst 33342. Images were acquired using a BD pathway 855 automated microscope (BD Imaging Systems, San Jose, USA) equipped with a 40× objective (Olympus, Center Valley, USA) coupled to a robotized Twister II plate handler (Caliper Life Sciences, Hopkinton, USA). […]

Q: Which results are given for `N#CC(=Cc1cn(-c2ccccc2)c2ccccc12)C(=O)O` [UK5099, 2-Cyano-3-(1-phenyl-1H-indol-3-yl)-2-propenoic acid]?
A: autophagic flux (GFP-LC3 puncta formation, LC3 lipidation) [1]: increased autophagic flux; also recorded: induction of GFP-LC3 puncta and lipidation of endogenous LC3-I to LC3-II; also recorded: induction of GFP-LC3 puncta, and lipidation of endogenous LC3-I to LC3-II; cytoplasmic protein acetylation [2]: reduced both AcCoA levels (A, E) and cytoplasmic protein acetylation; also recorded: deacetylation of cytoplasmic proteins

Q: How did the “starvation-induced autophagy (GFP-LC3 puncta, LC3 lipidation, autophagic flux)” value [1] turn out when `O=C(O)CCCCC1CCSS1` (stereo not shown) [LA, lipoic acid] was run?
A: abolished starvation-induced autophagy; also recorded: blunted starvation-induced mTORC1 inhibition, AMPK activation and autophagy flux

Q: What about the “cytoplasmic protein acetylation in starved cells” value [2] of the same compound?
A: increased both cellular AcCoA levels (K) and cytoplasmic protein acetylation; also recorded: maintain high AcCoA and cytoplasmic acetylation levels

Q: `CC(C)CC(=O)C(=O)O` [KIC, ketoisocaproic acid] was tested. Which “starvation-induced autophagy (GFP-LC3 puncta, LC3 lipidation, autophagic flux)” value [1] did it give?
A: inhibition of starvation induced autophagy; also recorded: inhibited the starvation-induced increase in autophagic flux; also recorded: more efficient than leucine in suppressing autophagy

Q: What about the “cytoplasmic protein acetylation in starved cells” value [2] of the same compound?
A: increase in AcCoA levels (A) and cytoplasmic protein acetylation; also recorded: sufficient to avoid AcCoA depletion and protein deacetylation

Q: How did the “autophagic flux (GFP-LC3 puncta formation, LC3 lipidation)” value [1] turn out when `O=C(O)CC(O)(C(=O)O)C(O)C(=O)O` (stereo not shown) [HC, hydroxycitrate] was run?
A: increased autophagic flux; also recorded: induce autophagic flux; also recorded: strongly stimulated autophagy both in vitro and in vivo; also recorded: stimulated autophagic flux in cultured cancer cells

Q: And the “abolition of the effects of AcCoA-replenishing agents on starvation-induced protein deacetylation and autophagy” value [1]?
A: cancelled the inhibitory effects; also recorded: abolished both the protein hyperacetylation and autophagy suppression

Q: And the cytoplasmic protein acetylation [2]?
A: reduced both AcCoA levels (E, I) and cytoplasmic protein acetylation; also recorded: induced cytosolic protein deacetylation; also recorded: induced cytoplasmic protein deacetylation

Q: What about the cytoplasmic protein acetylation ([2]; listed as Hydroxycitrate) of the same compound?
A: reduces cytoplasmic; also recorded: reduced cytoplasmic protein acetylation

Q: What does the source list for `COC(=O)CCC(=O)C(=O)OC` [DMKG, dimethyl-α-ketoglutarate]?
A: starvation-induced autophagy (GFP-LC3 puncta, LC3 lipidation, autophagic flux) [1]: abolished starvation-induced autophagy; also recorded: low autophagy; cytoplasmic protein acetylation in starved cells [2]: increased cellular AcCoA levels (E) and cytoplasmic protein acetylation; also recorded: maintained high AcCoA and cytoplasmic acetylation levels

Q: For `CC1=NN(c2ccc(C(=O)O)cc2)C(=O)/C1=C\c1ccc(-c2cc(C)c(C)cc2[N+](=O)[O-])o1` [c646], which “autophagic flux (GFP-LC3 puncta formation, LC3 lipidation)” value [1] is on record?
A: induced autophagy both in vitro, in cultured cells, and in vivo, in mice

Q: And the “abolition of the effects of AcCoA-replenishing agents on starvation-induced protein deacetylation and autophagy” value [1]?
A: precluded the inhibitory effect of AcCoA-replenishing agents on starvation-induced autophagy

Q: What does the source list for `CC(C)C[C@H](N)C(=O)O` [leucine]?
A: starvation-induced autophagy (GFP-LC3 puncta, LC3 lipidation, autophagic flux) [1]: suppression of autophagy; cytoplasmic protein acetylation in starved cells [2]: sufficient to maintain high AcCoA levels and cytoplasmic protein acetylation

Q: What does the source list for `O=C(O)c1cccc(C(=O)O)c1C(=O)O` [BTC, 1,2,3-benzenetricarboxylate]?
A: autophagic flux (GFP-LC3 puncta formation, LC3 lipidation) [1]: increased autophagic flux; also recorded: induced the triad; abolition of the effects of AcCoA-replenishing agents on starvation-induced protein deacetylation and autophagy [1]: cancelled the inhibitory effects; also recorded: abolished both the protein hyperacetylation and autophagy suppression; cytoplasmic protein acetylation [2]: reduced both AcCoA levels (A) and cytoplasmic protein acetylation; also recorded: protein deacetylation
